From patent US12497460B2, “Anti-MSR1 antibodies and methods of use thereof” (REGENERON PHARMACEUTICALS, INC., priority 2018, dated 2025)
Like-named read-outs stand apart in the source and are kept apart here. Marks after values point to notes of the source that are not given here.

Experiments:
[1] = test system: S. aureus MRSA strain NRS384 in humanized MSR1 mice; assay: S. aureus IV disseminated infection mouse model, kidney burden; type: in vivo
Protocol: To test the efficacy of an anti-MSR1 Ab-antibiotic ncADC of the invention in vivo, an intravenous disseminated infection model was utilized. S. aureus MSRA strain NRS384 was grown overnight in trypic soy broth (TSB) and sub-cultured to mid-logarithmic phase. Bacteria were then washed twice with PBS and resuspended in PBS at a concentration of 1.2×10^8 cfu/mL. […] From one to three days post infection, mice were treated with 110 mg/kg vancomycin subcutaneously twice daily where indicated. […] Mice were monitored for weight loss and body conditioning score throughout the infection. At four days post infection, mice were euthanized and the S. aureus kidney burden was quantified by tissue homogenization followed by enumeration of colony forming units through serial dilution in PBS and plating onto trypicase soy agar plates.

[2] = test system: Msr1^hu/hu ApoE^−/− mice, peritoneal macrophages; assay: LPS-mediated expression of CD80 on peritoneal macrophages (flow cytometry); type: in vivo, mouse; settings: administered 2 hours before
Protocol: (§1) Assay protocol for ex vivo LPS-induced responses. In ex vivo LPS challenge experiments, mice were intraperitoneally administered with 10 μL/g of anti-MSR1 antibody-steroid conjugates (H1H21234N-N297Q-LP13), isotype control steroid conjugate (Isotype control-LP13), unconjugated anti-MSR1 antibody (H1H21234N-N297Q) and isotype control antibodies at different time points (24, 48, and 72 hours) prior to harvesting the peritoneal cells from peritoneal cavity. […] All mice were sacrificed at 0 hour time point and peritoneal cells were obtained from the peritoneum by the peritoneal lavage technique. In brief, 5 mL of ice cold 1×PBS (ThermoFisher Scientific, Cat #20012027) containing 2% BSA (Gibco, Cat #A9576) and 0.6 mM EDTA (ThermoFisher Scientific, Cat #15575020) were injected into the peritoneal cavity using 27 g needle. […] The resuspended cells were plated at 500,000 cells per well in 24-well tissues culture plates and incubated with or without 10 ng/mL of LPS for 18 hours.
Assay protocol for in vivo LPS-induced responses. In in vivo LPS challenge experiments, mice were intraperitoneally administered with 10 μL/g of decreasing concentrations of anti-MSR1 antibody-steroid conjugates (H1H21234N-N297Q-LP13) and isotype control steroid conjugate (Isotype control-N297Q-LP13) at 24 hours prior to in vivo LPS challenge. PBS and free steroid P4 were intraperitoneally injected at 2 hours prior to in vivo LPS challenge. At 0 hour time point, three large drops of blood (volume ˜ 100 μL) were collected from the maxillary vein of each mouse into serum gel separator tubes. The tubes were centrifuged at 2200-2500 rpm for 15 minutes, and the serum was collected into 96-well plates for subsequent measurement of cytokines. At 18 hours post in vivo LPS challenge, the peritoneal cells were obtained from periotenal cavity as aforementioned for subsequent flow cytometry analysis.
Analysis of expression of activation markers on peritoneal macrophages after LPS ex vivo challenge. Upon collection of supernatants for cytokine analysis, the plates were washed twice with 1×PBS w/o Ca^++/Mg2^++ (ThermoFisher Scientific, Cat #14190144), and the adherent peritoneal cells were harvested by addition of 250-300 μL of cold Macrophage Detachment Solution DXF (PromoCell, Cat #C41330) for 40 minutes. The detached cells were collected into 50-mL tubes and centrifuged at 350×g for 15 minutes. After two washes with 1×PBS supplemented with 2 mM EDTA, the cells were resuspended in Cell Staining Buffer (Biolegend, #420201) and plated at 1×10^6 cells per well in a 96-well V bottom plate. […] Data were analyzed using FlowJo (Tree Star).

[3] = test system: Msr1^hu/hu ApoE^−/− mice, peritoneal cells; assay: Ex vivo LPS-induced cytokine production by peritoneal cells after in vivo dosing; parameters: species or system mouse; settings: administered 2 hours before peritoneal cell isolation; ex vivo LPS
Protocol: To examine the anti-inflammatory effect of the anti-MSR1 antibody-steroid conjugates, an ex-vivo and in vivo LPS-induced inflammatory immune response model was performed.
Generation of a mouse inflammatory immune response model. Mice homozygously expressing human MSR1 extracellular domain in place of the mouse MSR1 extracellular domain and with a homozygous deletion of the ApoE gene were utilized (resulting mice referred to as Msr1^hu/hu ApoE^−/− mice).
as §1
Measurement of cytokines at 18 hours post-LPS ex vivo challenge. Supernatants were collected into 96-well round bottom tissue culture plates at 18 hours post-ex vivo LPS challenge and stored at […] until further analysis. Cytokine concentrations in the supernatants were measured using a Proinflammatory Panel 1 (mouse) multiplex immunoassay kit (MesoScale Diagnostics, Cat #K15048D) according to manufacturer's instructions. Electrochemiluminescence was read on a Meso Scale Diagnostics SECTOR® instrument. Data analysis was performed using GraphPad Prism™ software. Statistical significance within the groups was determined by one-way Anova with Turkey's multiple comparison post-test (*p<0.01; **p<0.001; ***p<0.0001).

[4] = test system: LPS-induced IL-1β release in differentiated THP-1 cells; assay: LPS-mediated IL-1β release assay; type: cell-based, human; settings: for IC50: Homo sapiens, 100 ng/ml LPS for 5 hours, read-out: IC50, inhibition of LPS-induced IL-1β secretion
Protocol: To test the anti-inflammatory properties of anti-MSR1 antibody-steroid conjugates in vitro, a lipopolysaccharide (LPS)-mediated IL-1β release assay was performed. For the assay, THP-1 cells were seeded onto 96 well plates at 40,000 cells/well in media containing RPMI supplemented with 10% FBS and pencillin/streptomycinin and differentiated with 200 nM Phorbol Myristate Acetate (PMA) for 3 days. After the 3-day differentiation period, three-fold serial dilutions of antibody drug conjugates, unconjugated antibodies, or free payloads in fresh media were added to the cells at final concentration ranging from 100 nM to 0.01 nM. Media alone served as a blank control. Subsequently at 24, 48, or 72 hours later, cells were treated with 100 ng/ml LPS (InVivoGen, Cat #tlrl-eklps) for 5 hours. The cell media was then collected, and IL-1β levels were measured using a V-PLEX Proinflammatory Panel 1 human kit (Meso Scale Diagnostics, Cat #15049D-2) as per manufacturer's instructions. Subsequently, the plate was read on a Meso Scale Diagnostics instrument.
IC50 values were determined from a four-parameter logistic equation over a 10-point response curve (GraphPad Prism). All IC50 values are expressed in M (molar) concentration. The IC50 values and IL-1β amount at the maximum concentration of antibody-steroid conjugates or controls are shown in Table 22 each of the time point tested.

[5] = vancomycin treatment alone, limit of detection 250 cfu

| SMILES | reduction of S. aureus kidney burden ([1]; 110 mg/kg s.c. twice daily, days 1 to 3 post infection, day 4) | mice with S. aureus levels below the LOD (in words) ([1]; vancomycin alone, 110 mg/kg s.c. twice daily) | # of mice with S. aureus below the limit of detection [1, 5] | Average cfu/kidney pair [1, 5] [cfu/kidney pair] | LPS-mediated expression of CD80, pMΦ Cells ([2]; hMSR1+F4/80+CD11b+ peritoneal macrophages) | LPS-mediated expression of CD80, non-pMΦ Cells ([2]; hMSR1−F4/80−CD11b− cells) | Cytokine IL-6 [3] | Cytokine KC-GRO [3] [ng/mL] | Cytokine TNF-α [3] | IL1beta released at max concentration tested ([4]; 24 hour treatment before LPS) [pg/mL] | IL1beta released at max concentration tested ([4]; 48 hour treatment before LPS) [pg/mL] | IL1beta released at max concentration tested ([4]; 72 hour treatment before LPS) [pg/mL] | IC50 ([4]; THP-1, 24-hour time point) [pM] | IC50 ([4]; THP-1, 48-hour time point) [pM] | IC50 ([4]; THP-1, 72-hour time point) [pM] |
| --- | --- | --- | --- | --- | --- | --- | --- | --- | --- | --- | --- | --- | --- | --- | --- |
| CN[C@H](CC(C)C)C(=O)N[C@H]1C(=O)N[C@@H](CC(N)=O)C(=O)N[C@H]2C(=O)N[C@H]3C(=O)N[C@H](C(=O)N[C@H](C(=O)O)c4cc(O)cc(O)c4-c4cc3ccc4O)[C@H](O)c3ccc(c(Cl)c3)Oc3cc2cc(c3O[C@@H]2O[C@H](CO)[C@@H](O)[C@H](O)[C@H]2O[C@H]2C[C@](C)(N)[C@H](O)[C@H](C)O2)Oc2ccc(cc2Cl)[C@H]1O [vancomycin] | approximately 2 logs | none of the mice had levels of S. aureus reduced below the limit of detection | 0/6 | 2.07E+06 |  |  |  |  |  |  |  |  |  |  |  |
| C[C@@H]1C[C@H]2[C@@H]3CCC4=CC(=O)C=C[C@]4(C)[C@@]3(F)[C@@H](O)C[C@]2(C)[C@@]1(O)C(=O)CO [Dexamethasone, dexamethasone, reference compound] |  |  |  |  | 77.69 ± 2.6 % relative to PBS/LPS-treatment | 99.6 ± 5.8 % relative to PBS/LPS-treatment | 134.5 ± 18.2* ng/mL | 19.9 ± 1.5 | 0.63 ± 0.11* ng/mL | 45.33 | 11.8 | 13.34 | 420 | 794 | 543 |
